Measured values from BindingDB's records for PubMed 9353393 (Torrey Pines Institute For Molecular Studies, 1997).
Residues, ends and D or L forms follow the SMILES beside them.

molecular target: Nociceptin receptor (Mus musculus, UniProt P35377)
Sequence (P35377 whole entry): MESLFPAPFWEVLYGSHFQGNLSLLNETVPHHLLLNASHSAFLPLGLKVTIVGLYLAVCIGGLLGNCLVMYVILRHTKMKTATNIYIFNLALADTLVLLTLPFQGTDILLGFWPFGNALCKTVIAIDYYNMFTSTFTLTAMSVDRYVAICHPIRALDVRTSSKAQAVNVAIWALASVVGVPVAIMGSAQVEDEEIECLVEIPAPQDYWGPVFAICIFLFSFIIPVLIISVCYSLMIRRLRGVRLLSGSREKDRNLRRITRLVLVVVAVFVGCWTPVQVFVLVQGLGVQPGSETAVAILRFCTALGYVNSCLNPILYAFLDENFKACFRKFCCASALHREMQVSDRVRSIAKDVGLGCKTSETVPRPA

SMILES	Ki
CC(C)C[C@H](NC(=O)[C@H](CCCCN)NC(=O)[C@H](CCCN=C(N)N)NC(=O)[C@H](C)NC(=O)[C@H](CO)NC(=O)[C@H](CCCCN)NC(=O)[C@H](CCCN=C(N)N)NC(=O)[C@H](C)NC(=O)CNC(=O)[C@@H](NC(=O)[C@H](Cc1ccccc1)NC(=O)CNC(=O)CNC(=O)[C@@H](N)Cc1ccccc1)[C@@H](C)O)C(=O)N[C@@H](C)C(=O)N[C@@H](CC(N)=O)C(=O)N[C@@H](CCC(N)=O)C(=O)O [OFQ 1-17]	0.43 nM
CC[C@H](C)[C@H](NC(=O)[C@H](CCCN=C(N)N)NC(=O)[C@H](Cc1ccc(O)cc1)NC(=O)[C@H](Cc1ccc(O)cc1)NC(=O)[C@H](CCCN=C(N)N)NC(C)=O)C(=O)N[C@@H](CCCCN)C(N)=O [CAS_200959-48-4]	1.5 nM
CC(=O)N[C@@H](CCCNC(=N)N)C(=O)N[C@@H](Cc1ccc(O)cc1)C(=O)N[C@@H](Cc1ccc(O)cc1)C(=O)N[C@@H](CCCNC(=N)N)C(=O)N[C@@H](Cc1c[nH]c2ccccc12)C(=O)N[C@@H](CCCN=C(N)N)C(N)=O [Ac-RYYRWR-NH2] (Ac-RYYRWR-NH2)	0.6 nM
CC(=O)N[C@@H](CCCNC(=N)N)C(=O)N[C@@H](Cc1ccc(O)cc1)C(=O)N[C@@H](Cc1ccc(O)cc1)C(=O)N[C@@H](CCCCN)C(=O)N[C@@H](Cc1c[nH]c2ccccc12)C(=O)N[C@@H](CCCN=C(N)N)C(N)=O [Ac-RYYKWR-NH2] (Ac-RYYKWR-NH2)	1.47 nM
CC(=O)N[C@@H](CCCNC(=N)N)C(=O)N[C@@H](Cc1ccc(O)cc1)C(=O)N[C@@H](Cc1ccc(O)cc1)C(=O)N[C@@H](CCCNC(=N)N)C(=O)N[C@@H](Cc1c[nH]c2ccccc12)C(=O)N[C@@H](CCCCN)C(N)=O [CAS_200959-47-3] (Ac-RYYRWK-NH2)	0.71 nM
